Here are results for one molecule from PMC5354814, “In silico and in vitro drug screening identifies new therapeutic approaches for Ewing sarcoma” (Oncotarget, 2016).

Read-outs that look alike come from different tables or passages of the source.

For data set [1] the following is noted: cited from earlier work; for LD50: PO.
Details of data set [2]: method as in ref 19 (a number printed in a supplementary file, which may have a reference list of its own: not looked up in the article's list). Conditions: cited from earlier work.
Details of data set [3]: method as in ref 19 (a number printed in a supplementary file, which may have a reference list of its own: not looked up in the article's list). The note with it: rats, 2 - 40 mg auranofin/kg p.o.; cited from earlier work.
Data set [4] deals with Hs 919.T. The experiment in a line: Hits validation, dose-response cell proliferation (CellTiter-Glo). The note with it: control cell line, 12-point dose-response, mean ± SD. Format: cell-based. An outline of the steps: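 Dose-response proliferation test: drugs spanning 1 nmol/L–50 μmol/L were added one day after seeding 750–1,500 cells per well. CellTiter-Glo signal gave IC50s.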
(In ATP-based viability assays light output follows the ATP content of the culture.)

Data set [5] relates to A673 cells. The experiment in a line: In vivo xenograft mouse model. The protocol:
To assess the antitumor activity of auranofin (using an alternative delivery approach), ganetespib and the combination treatments in vivo, we generated a xenograft nude mouse model by injecting A673 cells intramuscularly proximal to the tibia. Based on the dose tolerance and pharmacokinetic studies described above, we administered auranofin at a tolerable daily i.p. dose that achieved adequate systemic drug exposure. Auranofin was administered with a dose of 12 mg/kg through an i.p. injection once a day for 5 days per week, and ganetespib was administered with a dose of 150 mg/kg through an i.v. injection once weekly. Mice that grew palpable tumors were randomized into four groups: vehicle, auranofin-only, ganetespib-only, and the combination.
The guidelines adopted by the Institutional Animal Care and Use Committee of the University of Kansas Medical Center (KUMC-IACUC) were followed in all performed procedures. All experimental protocols were approved by KUMC-IACUC. Homozygous athymic nude (Foxn1nu/Foxn1nu) female mice at the age of 4-weeks were purchased from Jackson Laboratories. After one week, one million A673 cells in PBS (pH = 7.3) were injected into mice. The cells were injected intramuscularly proximal to the tibia and treatment started after 15 days of inoculation. Mice developing palpable tumors were divided into 4 arms and treated for up to 18 days: vehicle (20% Cremophor RH40 and 80% D5W iv and 0.5% HPMC K4M ip), auranofin (12 mg/kg i.p. injection 5 days per week), ganetespib (150 mg/kg i.v. injection once weekly), as well as auranofin and ganetespib combined. Mice were evaluated for overall health and weighed every week. When tumor size impeded mobility, mice were sacrificed and necropsies were performed. Tumors were then dissected, measured and processed for analysis. The liver, kidneys, and spleen were also snap frozen in liquid nitrogen or fixed in 10% neutral buffered formalin and paraffin embedded for toxicity studies. Tissues were then subjected to hematoxylin and eosin (H&E) staining and immunohistochemical staining. […]

The subject of data set [6] is human lymphocyte. Also noted: method as in ref 19 (a number printed in a supplementary file, which may have a reference list of its own: not looked up in the article's list). Conditions: 0.1 - 1.0 µg auranofin/mL; cited from earlier work.
The subject of data set [7] is rate leukocytes. Also noted: method as in ref 19 (a number printed in a supplementary file, which may have a reference list of its own: not looked up in the article's list). Conditions: 10^-3 to 10^-6M; cited from earlier work.
The nature of data set [8]: Blood gold pharmacokinetics after i.p. auranofin suspension with ganetespib pre-treatment. Format: in vivo, BALB/c mice. An excerpt: As indicated previously, auranofin is a complex of gold triethylphosphine and thioglucose tetraacetate. Gold comprises 29% of auranofin by weight. Auranofin is chemically and metabolically highly unstable in solution. […] Following oral administration of ^195Au auranofin to humans, 25% of administered ^195Au appears in plasma. Further, approximately 40% of absorbed gold distributes into erythrocytes with 60% found in plasma. As a result, and consistent with the extensive literature describing auranofin pharmacokinetics in animals and humans, we characterized the pharmacokinetics of i.p. auranofin in mice by quantifying blood gold concentrations as summarized in Table 4. Peak blood gold concentrations were 12.43 μg/mL in mice receiving auranofin suspension preceded by i.v. ganetespib. […]
The single-dose […] pharmacokinetics of gold were characterized in 36 BALB/c mice following administration of a single 12 mg/kg i.p. suspension dose of auranofin. […] Whole blood aliquots of 500 μL obtained from each of the three animals per time point were assayed using a validated inductively coupled plasma mass spectrometry (ICPMS) method to quantify blood gold concentration. Mean blood gold concentrations were determined for each blood collection time point. […]

For data set [9] the following is noted: mice, 18 months, cited from earlier work.

Consider `CC(=O)OC[C@H]1O[C@@H]([S-])[C@H](OC(C)=O)[C@@H](OC(C)=O)[C@@H]1OC(C)=O.CCP(CC)CC.[Au+]` [Auranofin, auranofin], for which the LD50 (in general, the dose expected to kill half of the subjects tested) in [1] (Mouse B6C3F1, F) is 187 mg/kg; in data set [1] (Mouse B6C3F1, M), 190 mg/kg; in data set [1] (Mouse CF1, F), 225 mg/kg. Besides, the “acute oral LD50” value in [1] (adult mice) is listed as 310 mg/kg. Moreover, the “murine antibody production against SRBC” value in data set [2] was “inconsistent inhibition”. Besides, the antidiuretic effect entry in data set [3] was “slight antidiuretic effect”. Also, the half-inhibitory concentration (IC50) (commonly the point on the concentration scale where inhibition reaches its midpoint) in data set [4] stood at 5.38 ± 0.89 µM. The “survival rate versus control group” value in data set [5] (auranofin 12 mg/kg i.p. 5 days per week, ganetespib 150 mg/kg i.v. once weekly, p < 0.05) is “significantly increased the survival rate”. The “toxicity or adverse effects in xenograft study” value in data set [5] (auranofin 12 mg/kg i.p., ganetespib 150 mg/kg i.v.) is “did not show any noticeable toxicity or adverse effects”. For the same molecule, the phytohemagglutinin-induced mitogenesis result in data set [6] is “inhibited”. Also, the “particle-stimulated lysosomal enzyme release” value in data set [7] is given as “significantly reduced”. The Trough gold concentration in data set [8] (24 hours following the fifth once daily i.p. dose of 12 mg/kg) stood at 23.9 µg/mL. For the same molecule, in [8] (single i.p. 12 mg/kg auranofin suspension, ganetespib pre-treatment), the Cmax (in general, the highest concentration seen after dosing) came out at 63.1 µM. In addition, the “instances of tumors above controls” value in data set [9] (oral 1, 3 and 9 mg/kg/day) is reported as “no statistica ll y significant increase”. Besides, the tumor findings result in data set [9] (oral 1, 3 and 6-9 mg/kg/day) is “increase in benign”.
